Results: patent publication US20260109721A1, “IONIZABLE CATIONIC LIPIDS INCORPORATING SILICON: SYNTHESIS AND LNP FORMULATION” (priority 2023, published 2026)
Like-named read-outs stand apart in the source and are kept apart here.

What was measured:
HeLa cells = assay: Cell viability assessment with resazurin assay (Method A); format: cell-based
Procedure, shortened: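 HeLa cells after Luc mRNA LNP transfection were incubated 50 min at 37 °C with 0.025 mg/ml resazurin in DMEM/F12 with 10% FCS. Resorufin fluorescence was read at ex 540/em 610 nm, background-subtracted, and expressed as percent of OptiMEM-only controls.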

HepG2 cell line = assay: In vitro toxicity study on HepG2 cell line (resazurin, viability and IC50); format: cell-based, human; conditions: for IC50: read-out: IC50 value, μM (on HepG2 cell)
Procedure, shortened: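 HepG2 cells (1000/well) were treated after overnight incubation with lipids at 6.25–800 μM for 48 h. Viability was read by resazurin fluorescence (530/580 nm) after 5 h at 37 °C, relative to ethanol vehicle controls. IC50 values came from concentration-response curves.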

[1] = HepG2 cells, 6.25 μM lipid, 48 h post-treatment, resazurin, relative to ethanol vehicle controls
[2] = HepG2 cells, 12.5 μM lipid, 48 h post-treatment, resazurin, relative to ethanol vehicle controls
[3] = HepG2 cells, 25 μM lipid, 48 h post-treatment, resazurin, relative to ethanol vehicle controls
[4] = HepG2 cells, 50 μM lipid, 48 h post-treatment, resazurin, relative to ethanol vehicle controls
[5] = HepG2 cells, 100 μM lipid, 48 h post-treatment, resazurin, relative to ethanol vehicle controls
[6] = HepG2 cells, 200 μM lipid, 48 h post-treatment, resazurin, relative to ethanol vehicle controls
[7] = HepG2 cells, 400 μM lipid, 48 h post-treatment, resazurin, relative to ethanol vehicle controls
[8] = HepG2 cells, 800 μM lipid, 48 h post-treatment, resazurin, relative to ethanol vehicle controls
[9] = Homo sapiens, lipid toxicity, HepG2, 48 h post-treatment, resazurin, 6.25-800 μM

SMILES | Cell Viability % (Average metabolic rate over all doses, Resazurin) (HeLa cells; human) [%] | Viability (%) at different lipid concentrations, mean (HepG2 cell line; [1]) [%] | Viability (%) at different lipid concentrations, mean (HepG2 cell line; [2]) [%] | Viability (%) at different lipid concentrations, mean (HepG2 cell line; [3]) [%] | Viability (%) at different lipid concentrations, mean (HepG2 cell line; [4]) [%] | Viability (%) at different lipid concentrations, mean (HepG2 cell line; [5]) [%] | Viability (%) at different lipid concentrations, mean (HepG2 cell line; [6]) [%] | Viability (%) at different lipid concentrations, mean (HepG2 cell line; [7]) [%] | Viability (%) at different lipid concentrations, mean (HepG2 cell line; [8]) [%] | IC50 (HepG2 cell line; [9]) [µM] | Viability (%) at different lipid concentrations, mean (HepG2 cell line; human, 48 h, 6.25 μM) [%] | Viability (%) at different lipid concentrations, mean (HepG2 cell line; human, 48 h, 50 μM) [%] | IC50 (HepG2 cell line; Homo sapiens, HepG2, 48 h) [µM] | Cell Viability % (Average metabolic rate over all doses, Resazurin) (HeLa cells) [%] | IC50 (HepG2 cell line; lipid toxicity, HepG2, 48 h post-treatment, resazurin, 6.25-800 μM) [µM]
CCCCCCCC/C=C\CCCCCCCCOC(=O)C(C)(C)CC(OCCCCCCCC/C=C\CCCCCCCC)O[Si](C)(C)OCCCCCCN1CCCC1CO (stereo not drawn) [Example 90, (Z)-octadec-9-en-1-yl 4-((((6-(2-(hydroxymethyl)pyrrolidin-1-yl)hexyl)oxy)dimethylsilyl)oxy)-2,2-dimethyl-4-(((Z)-octadec-9-en-1-yl)oxy)butanoate] | 106 | 101.5 | 96.4 | 96.6 | 100.5 | 105.8 | 104.9 | 93.1 | 84.0 | > 800 | – | – | – | – | –
CCCCCCCC/C=C\CCCCCCCCOC(=O)C(C)(C)CC(OCCCCCCCC/C=C\CCCCCCCC)O[Si](C)(C)OCCCCCCN(C)CCCCO (stereo not drawn) [Example 91, (Z)-octadec-9-en-1-yl 18-hydroxy-2,2,6,6,14-pentamethyl-4-(((Z)-octadec-9-en-1-yl)oxy)-5,7-dioxa-14-aza-6-silaoctadecanoate] | 105 | 100.2 | 98.8 | 108.4 | 112.4 | 103.1 | 88.0 | 61.2 | 44.1 | 625 | – | – | – | – | –
CCCCCCCC/C=C\CCCCCCCCOC(=O)C(C)(C)CC(OCCCCCCCC/C=C\CCCCCCCC)O[Si](C)(C)OCCCCCCN(C)CC(O)CO (stereo not drawn) [Example 92, (Z)-octadec-9-en-1-yl 1,2-dihydroxy-4,12,12,16,16-pentamethyl-14-(((Z)-octadec-9-en-1-yl)oxy)-11,13-dioxa-4-aza-12-silaheptadecan-17-oate] | 111 | 105.5 | 104.3 | 110.6 | 109.4 | 98.9 | 80.7 | 63.8 | 49.2 | 691 | – | – | – | – | –
CCCCCCCC/C=C\CCCCCCCCOC(=O)C(C)(C)CC(OCCCCCCCC/C=C\CCCCCCCC)O[Si](C)(C)OCCCCCCN(C)CCO (stereo not drawn) [Example 93, (Z)-octadec-9-en-1-yl 1-hydroxy-3,11,11,15,15-pentamethyl-13-(((Z)-octadec-9-en-1-yl)oxy)-10,12-dioxa-3-aza-11-silahexadecan-16-oate] | 106 | 102.3 | 99.0 | 105.2 | 112.1 | 111.6 | 99.7 | 83.4 | 72.2 | > 800 | – | – | – | – | –
CCCCCCCC/C=C\CCCCCCCCOC(=O)C(C)(C)CCC(OCCCCCCCC/C=C\CCCCCCCC)O[Si](C)(C)OCCCCCCN(CCO)CCO (stereo not drawn) [Example 94, (Z)-octadec-9-en-1-yl 1-hydroxy-3-(2-hydroxyethyl)-11,11,16,16-tetramethyl-13-(((Z)-octadec-9-en-1-yl)oxy)-10,12-dioxa-3-aza-11-silaheptadecan-17-oate] | 101 | – | 96.6 | 97.9 | – | 106.5 | 107.9 | 104.0 | 103.1 | > 800 | 101.5 | 101.3 | – | – | –
CCCCCCCC/C=C\CCCCCCCCOC(=O)C(C)(C)CCC(OCCCCCCCC/C=C\CCCCCCCC)O[Si](C)(C)OCCCCCCN1CCOCC1 (stereo not drawn) [Example 95, (Z)-octadec-9-en-1-yl 5-((dimethyl((6-morpholinohexyl)oxy)silyl)oxy)-2,2-dimethyl-5-(((Z)-octadec-9-en-1-yl)oxy)pentanoate] | 106 | 102.8 | 97.8 | 98.4 | 99.7 | 98.8 | 100.3 | 103.6 | 104.6 | > 800 | – | – | – | – | –
CCCCCCCC/C=C\CCCCCCCCOC(=O)C(C)(C)CC(OCCCCCCCC/C=C\CCCCCCCC)O[Si](C)(C)OCCCCCCN(CCO)CCN(CCO)CCCCCCO[Si](C)(C)OC(CC(C)(C)C(=O)OCCCCCCCC/C=C\CCCCCCCC)OCCCCCCCC/C=C\CCCCCCCC (stereo not drawn) [Example 96, di((Z)-octadec-9-en-1-yl) 14,17-bis(2-hydroxyethyl)-2,2,6,6,25,25,29,29-octamethyl-4,27-bis(((Z)-octadec-9-en-1-yl)oxy)-5,7,24,26-tetraoxa-14,17-diaza-6,25-disilatriacontanedioate] | 104 | 98.62 | 98.94 | 97.36 | 96.50 | 95.63 | 90.16 | 67.88 | 5.80 | 465 | – | – | – | – | –
C#CCN(C)CCCCCCO[Si](C)(C)OC(CC(C)(C)C(=O)OCCCCCCCC/C=C\CCCCCCCC)OCCCCCCCC/C=C\CCCCCCCC (stereo not drawn) [Example 97, (Z)-octadec-9-en-1-yl 4,12,12,16,16-pentamethyl-14-(((Z)-octadec-9-en-1-yl)oxy)-11,13-dioxa-4-aza-12-silaheptadec-1-yn-17-oate] | 109 | 100.7 | 96.1 | 95.5 | 97.5 | 98.9 | 99.7 | 91.8 | 0.7 | – | – | – | 501 | – | –
CCCCCCCCCCCOC(=O)CCCCCN(CCO)CCCCCCCC(=O)OC(CCCCCCCC)CCCCCCCC [SM-102, reference compound] | – | 86.5 | 101.5 | 101.7 | 101.4 | 21.2 | 0.4 | 0.2 | 0.0 | – | – | – | – | 91 | 85
